Experimental data: PubChem BioAssay (NCI)
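Five compound concentrations were applied to cells in 96-well plates for 48 hours; endpoints were derived by simple linear interpolation of the resulting dose-response curve. GI50: concentration for 50% inhibition of growth. TGI: total growth inhibition.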

These compounds were tested on SK-MEL-28 melanoma (assay: NCI-60 cell line screen, 48 h).

Structure (SMILES) | GI50 [µM] | TGI [µM]
NC1CCCC[C@H]1N.N[C@@H]1CCCC[C@@H]1N.O=C(P(=O)([O-])[O-])P(=O)([O-])[O-].[Pt+4].[Pt+4] | > 100 | > 100
Cc1ccc(Nc2nc(N)c(C(=O)c3ccc(C#N)cc3)s2)cc1 | 18.9 | > 100
CN1CCc2c(Sc3ccc(C(=O)NO)cc3)c3ccccc3n2C1 | 1.58 | 3.98
CC(=O)O[C@@H]1C[C@]2(C(C)C)O[C@@]1(C)[C@@H]1CCC(C)=C1[C@@H]2OC(=O)/C=C/c1ccccc1 | 69.9 | > 100
O=C(CSc1nnc(-c2ccccc2NC(=O)C(F)(F)F)c(=O)[nH]1)NC(=O)Nc1ccccc1 | – | > 100
CCN1C(=O)N(CC)C2C1NC(=S)N2/N=C/C=C/c1cccs1 (stereo unspecified) | – | > 100
COc1ccc(C(=O)C(CO)Oc2ccccc2OC)cc1OC (stereo unspecified) | – | > 100

These compounds were tested on SR leukemia (assay: NCI-60 cell line screen, 48 h).

Structure (SMILES) | TGI [µM] | GI50 [µM]
O=C1CSC(Cc2nc3ccccc3[nH]2)=N1 | 25.6 | –
COc1ccccc1NC(=O)C1=C(C)NC(C)=C(C(=O)Nc2ccccc2OC)C1c1ccc([N+](=O)[O-])cc1 | > 100 | –
CCOC(=O)[C@H](CCCNC(=O)OC(C)(C)C)NCc1ccc(OC)c(OC)c1 | > 100 | –
O=[N+]([O-])c1ccc(-n2nnc(C3=NCCCN3)c2-c2ccc(Cl)cc2)cc1 | > 100 | –
COC(=O)C12C3C4C5(C(=O)OC)C(C1C35C(=O)N(C(C)C)C(C)C)C42C(=O)N(C(C)C)C(C)C (stereo unspecified) | > 50 | –
N#CC(C#N)=c1[nH]c2cccc3c2-c2c(cccc2c3=C(C#N)C#N)[nH]1 | > 100 | –
COC(=O)/C=C/C1C(C(=O)OC)C2(C(=O)OC)CCC1(C(=O)OC)N2 (stereo unspecified) | > 100 | –
N#CC(/C(=N/NC(=O)C(=O)NN)C(=O)NC12CC3CC(CC(C3)C1)C2)c1ccccc1 (stereo unspecified) | > 100 | –
Cc1cc(C)n(CCNCCn2nc(C)cc2C)n1 | > 100 | –
CCOC(=O)N1CCN(C(=O)c2ccc(C(F)(F)F)nc2Nc2cc(Cl)ccc2C)CC1 | 65.7 | 7.74
O=C(O)c1cc(O)c2c(c1)C(C1c3cc(C(=O)O)cc(O)c3C(=O)c3c(OC4OC(CO)C(O)C(O)C4O)cccc31)c1cccc(OC3OC(CO)C(O)C(O)C3O)c1C2=O (stereo unspecified) | > 100 | > 100
COc1ccc(CNc2c3ccccc3nc3ccccc23)cc1OC | 7.2 | 1.34
CCCCCCCCCc1cc(=O)c2c(O)cccc2o1 | > 100 | –
COc1cc2cn3c4ccc(O)cc4[nH]c(=O)c3c2cc1OC | 1.79 | 0.0173
COc1ccc(/C=c2/sc3n(c2=O)C(c2ccc(OC)c(OC)c2)C2=C(N=3)c3cc(F)ccc3OC2)cc1 (stereo unspecified) | > 100 | 60.9
Cc1n(Cc2ccc3ccccc3c2)cc[n+]1Cc1ccc2ccccc2c1 | 2.47 | 0.552
CC(C)(C)N1CC2(CCCCC2)C1=O | > 100 | –
O=C(CCC(=O)Nc1cccc(Cl)c1)CC(=O)c1ccc(Cl)cc1 | > 100 | –
Cc1cc(NC(=O)c2ccc(C)c(Nc3nccc(-c4cccnc4)n3)c2)cc(-n2cnc(C)c2)c1 | 11.8 | 2.46
Cc1[nH]n(-c2cccc(Cl)c2)c(=O)c1/C=C1\C=Nc2ccc(Br)cc21 | 3.99 | 1.88
CC(=O)c1c(CBr)n([O-])c2ccccc2[n+]1=O | 8.03 | 3.22
CCCS(=O)(=O)Nc1ccc(Nc2c3ccccc3nc3ccccc23)c(OC)c1 | 0.85 | –
CCN(CC)CC(C)(C)C(=O)/C=C/c1ccc(Cl)c(Cl)c1 | 8.91 | 1.75
Cc1ccc(Nc2nc(N)c(C(=O)c3ccc(C#N)cc3)s2)cc1 | > 100 | 0.0544
CN1CCc2c(Sc3ccc(C(=O)NO)cc3)c3ccccc3n2C1 | 9.92 | 2.69
CC(=O)O[C@@H]1C[C@]2(C(C)C)O[C@@]1(C)[C@@H]1CCC(C)=C1[C@@H]2OC(=O)/C=C/c1ccccc1 | > 100 | 31.8
O=C(CSc1nnc(-c2ccccc2NC(=O)C(F)(F)F)c(=O)[nH]1)NC(=O)Nc1ccccc1 | > 100 | –
CCN1C(=O)N(CC)C2C1NC(=S)N2/N=C/C=C/c1cccs1 (stereo unspecified) | > 38.9 | 0.217

The compounds below were run on SW-620 colon (assay: NCI-60 cell line screen, 48 h).

Structure (SMILES) | TGI [µM] | GI50 [µM]
CC(C)(C)C(=O)/C=C/c1ccc(Oc2ccccc2)cc1 | 36.1 | –
CC1=C(C(=O)Nc2c(C)cccc2C)C(c2ccccc2Cl)C(C(=O)Nc2c(C)cccc2C)=C(C)N1 | > 100 | –
O=C1CSC(Cc2nc3ccccc3[nH]2)=N1 | > 100 | –
COc1ccccc1NC(=O)C1=C(C)NC(C)=C(C(=O)Nc2ccccc2OC)C1c1ccc([N+](=O)[O-])cc1 | > 100 | –
CCOC(=O)[C@H](CCCNC(=O)OC(C)(C)C)NCc1ccc(OC)c(OC)c1 | > 100 | –
O=C(/C=C/c1c(O)ccc2ccccc12)c1ccc2ccccc2c1 | > 100 | –
O=[N+]([O-])c1ccc(-n2nnc(C3=NCCCN3)c2-c2ccc(Cl)cc2)cc1 | > 100 | –
COC(=O)C12C3C4C5(C(=O)OC)C(C1C35C(=O)N(C(C)C)C(C)C)C42C(=O)N(C(C)C)C(C)C (stereo unspecified) | > 43.6 | –
N#CC(C#N)=c1[nH]c2cccc3c2-c2c(cccc2c3=C(C#N)C#N)[nH]1 | > 100 | –
COC(=O)/C=C/C1C(C(=O)OC)C2(C(=O)OC)CCC1(C(=O)OC)N2 (stereo unspecified) | > 100 | –
N#CC(/C(=N/NC(=O)C(=O)NN)C(=O)NC12CC3CC(CC(C3)C1)C2)c1ccccc1 (stereo unspecified) | > 100 | –
CC(=O)OCC1OC([S-])C(OC(C)=O)C(OC(C)=O)C1OC(C)=O.CC[PH+](CC)CC.CC[PH+](CC)CC.[Au].[Au] (stereo unspecified) | 0.493 | 0.199
Cc1cc(C)n(CCNCCn2nc(C)cc2C)n1 | > 100 | –
COc1cc2c(cc1OCc1ccccc1)CNCC2 | > 100 | –
CCOC(=O)N1CCN(C(=O)c2ccc(C(F)(F)F)nc2Nc2cc(Cl)ccc2C)CC1 | 92.9 | 15.4
O=C(CN1CCCCC1)N1CCc2c([nH]c3ccccc23)C1c1cccnc1 (stereo unspecified) | > 100 | –
O=C(O)c1cc(O)c2c(c1)C(C1c3cc(C(=O)O)cc(O)c3C(=O)c3c(OC4OC(CO)C(O)C(O)C4O)cccc31)c1cccc(OC3OC(CO)C(O)C(O)C3O)c1C2=O (stereo unspecified) | > 100 | > 100
COc1ccc(CNc2c3ccccc3nc3ccccc23)cc1OC | 10.1 | 1.69
CCCCCCCCCc1cc(=O)c2c(O)cccc2o1 | > 100 | –

Structure (SMILES) | TGI [µM] | GI50 [µM]
COc1cc2cn3c4ccc(O)cc4[nH]c(=O)c3c2cc1OC | 1.83 | < 0.0119
COc1ccc(/C=c2/sc3n(c2=O)C(c2ccc(OC)c(OC)c2)C2=C(N=3)c3cc(F)ccc3OC2)cc1 (stereo unspecified) | > 100 | 50.5
Cc1n(Cc2ccc3ccccc3c2)cc[n+]1Cc1ccc2ccccc2c1 | 11.7 | 1.77
O=S(O)CCCCSSCc1ccccc1CSSCCCCS(=O)O | 89.5 | –
CC(C)(C)N1CC2(CCCCC2)C1=O | > 100 | –
O=C(CCC(=O)Nc1cccc(Cl)c1)CC(=O)c1ccc(Cl)cc1 | > 100 | –
Cc1cc(NC(=O)c2ccc(C)c(Nc3nccc(-c4cccnc4)n3)c2)cc(-n2cnc(C)c2)c1 | 26.4 | 4.7
Cc1[nH]n(-c2cccc(Cl)c2)c(=O)c1/C=C1\C=Nc2ccc(Br)cc21 | > 100 | 3.58
CC(=O)c1c(CBr)n([O-])c2ccccc2[n+]1=O | 4.15 | 2.04
CCCS(=O)(=O)Nc1ccc(Nc2c3ccccc3nc3ccccc23)c(OC)c1 | 21.3 | –
CCN(CC)CC(C)(C)C(=O)/C=C/c1ccc(Cl)c(Cl)c1 | 4.21 | 1.76
NC1CCCC[C@H]1N.N[C@@H]1CCCC[C@@H]1N.O=C(P(=O)([O-])[O-])P(=O)([O-])[O-].[Pt+4].[Pt+4] | > 100 | 38.8
Cc1ccc(Nc2nc(N)c(C(=O)c3ccc(C#N)cc3)s2)cc1 | > 100 | 0.336
CN1CCc2c(Sc3ccc(C(=O)NO)cc3)c3ccccc3n2C1 | 5.22 | 1.92
CC(=O)O[C@@H]1C[C@]2(C(C)C)O[C@@]1(C)[C@@H]1CCC(C)=C1[C@@H]2OC(=O)/C=C/c1ccccc1 | > 100 | 39
O=C(CSc1nnc(-c2ccccc2NC(=O)C(F)(F)F)c(=O)[nH]1)NC(=O)Nc1ccccc1 | > 100 | –
CCN1C(=O)N(CC)C2C1NC(=S)N2/N=C/C=C/c1cccs1 (stereo unspecified) | > 100 | 0.355
COc1ccc(C(=O)C(CO)Oc2ccccc2OC)cc1OC (stereo unspecified) | > 100 | –
